Source: publication PMC12114812 (Pharmaceutics, 2025)
Values after ≈ are worked out from the molar mass of the structure shown. Read-outs that look alike come from different tables or passages of the source.

Legend:
[1] = physchem; type: physicochemical; details: I = 0.15 M, 25 °C, standard deviation in parenthesis
Procedure: The pKa and logPo/w determinations were performed using the SiriusT3 titrator (Pion Inc.). The titrations were carried out from pH 12.0 to 2.0 due to the acidic nature of the drugs, at an ionic strength of 0.15 M (KCl), under an argon atmosphere and controlled temperature (25.0 ± 0.1 °C).
Octanol–water partition values, logPo/w, were obtained by potentiometric titrations in the presence of octanol at concentrations between 1.4 mM and 0.4 mM.

[2] = Shake-flask solubility with and without excipient (maleic/maleate buffers, HPLC quantification); type: physicochemical; details: 25 °C
Procedure: Prior to performing the solubility measurements, maleic/maleate buffers were prepared as follows: a stock solution containing 55 mM maleic acid, 126 mM sodium chloride, and 82 mM NaOH (conditions that mimic the fed state of the intestinal fluid) was made following the guidelines of Biorelevant. Final buffers at pH 2, 5.8, and 6.5 were prepared by the addition of HCl or NaOH to three different aliquots of the stock solution. […] The weighed amount must be enough to obtain saturated solutions, which depends on the sample and pH of the buffer used. The samples were shaken for 24 h at 25 ± 0.5 °C, with a pH control of the solutions after 4 h of shaking. […] After shaking for 24 h, the samples were allowed to equilibrate for an additional 24 h. Subsequently, the final pH was measured, and phase separation was carried out via centrifugation. […] The quantification of the supernatant was performed by liquid chromatography under isocratic conditions using methanol/10 mM phosphate buffer at pH 7.5 as the mobile phase. […] The flow rate was set at 1 mL/min, with an injection volume of 10 μL. […] If necessary, an appropriate dilution in water of the saturated supernatant was carried out to ensure its fit in the range of calibration. The effect of a given excipient on the solubility of a drug depends on both the nature of the compound and the nature of the excipient used. To evaluate if the enhancement in solubility is significant with respect to the solubility in water when the excipients are added, the criterion of twice the standard deviation (sd) was applied. […] This value was chosen because it corresponds to an average standard deviation obtained in our laboratory for shake-flask solubility determinations and it also agrees with typical sd reported in the literature.

[3] = CheqSol potentiometric intrinsic solubility and supersaturation; type: physicochemical; details: for pH range in which the drug precipitated from solution: CheqSol titration from pH 12.0 to low pH, with and without excipients; for time of supersaturation: with hydrophilic excipients; for ts, time of supersaturation: drug:excipient 1:1; for ts, time of supersaturation / solubility: 0.17 M KCl; for Rs, supersaturation ratio: Rs = Cmax/S0, S0 of the API in a medium without excipients; for solubility: aqueous titration solution, without excipient
Text: For the determination of the intrinsic solubility using the potentiometric method, two events must happen: First, the compound must be fully dissolved at the beginning of the titration. Second, the precipitation of the compound from the solution should occur close to the equivalent point of the titration curve. The amount of compound used in a CheqSol determination must be enough to achieve both events. […] All titrations started at pH 12.0, where the compounds were ionized and titrated to a low pH to force precipitation. […] At this point, the sample existed in a supersaturated or subsaturated state (i.e., chase equilibrium). The change between the subsaturated and supersaturated states was repeated several times to determine the intrinsic solubility by calculating the pH by interpolation between the two saturated states. The intrinsic solubility was calculated using the principles of mass and charge balance at the pH at which the equilibrium of the system was reached.
The CheqSol method not only provides the thermodynamic solubility of the neutral form (S0) of an ionizable compound but also the extent and time that a solution remains supersaturated before reaching S0. Both parameters are used to evaluate the supersaturation of a compound [10]. In this method, the experiment starts in conditions where the drug is completely ionized, and so, fully dissolved. Therefore, the concentration of the neutral species in solution is “zero”. The titration begins by titrating towards the pKa of the drug, to force precipitation as the neutral species starts to form. During this process, the concentration of the neutral species in solution increases to a maximum (Cmax) before the drug precipitates. When precipitation starts, it decreases dramatically to a much lower concentration to reach the intrinsic solubility. It must be noted that, before the drug precipitates, the solution is supersaturated. […] The supersaturation parameters can be obtained from the plot that monitors the concentration of neutral species in solution against time. […] The extent of the supersaturation corresponds to the maximum concentration of the neutral species in solution (Cmax) before the drug precipitates, and the duration of the supersaturation (ts) is the amount of time that the drug stays supersaturated until it reaches equilibrium solubility. In addition, the supersaturation ratio (Rs) can be calculated by dividing Cmax by the intrinsic solubility (S0).

[4] = Ionization degree at the studied pH according to pKa; type: physicochemical
Procedure: Therefore, this pH value was also included in the study. […] When the solubility of the free drugs (without excipients) is evaluated, it can be observed that the intrinsic solubility is in agreement with their hydrophobicity (Table 1). […] Benzthiazide has an intermediate solubility. Moreover, as expected, the solubility of the compounds increases with the ionization degree. […] Here, a slight increase is observed.

[5] = design: method as in PMID 29481859; details: I = 0.15 M, 25 °C; cited from earlier work
[6] = pKa determination, spectrometric UV-metric titration (SiriusT3); type: physicochemical; details: aqueous 0.15 M KCl solution; I = 0.15 M, 25 °C; standard deviation in parenthesis; read-out: pKa (second value)
Procedure: The pKa and logPo/w determinations were performed using the SiriusT3 titrator (Pion Inc.). […] For the analysis, 5 μL of a 10 mM DMSO sample stock solution, and 25 μL of a 15 mM potassium phosphate buffer, were added to 1.5 mL of a 0.15 M KCl solution. The UV-metric titration method used the UV absorbance changes in the aromatic groups close to the ionizable groups of the substance as a function of pH [30]. […] Results are the mean value from four triple titrations.

[7] = pH 2, Captisol, 1:1 excipient:API weight ratio
[8] = pH 2, Cavasol, 1:1 excipient:API weight ratio
[9] = pH 2, Klucel, 1:1 excipient:API weight ratio
[10] = pH 2, Kollidon, 1:1 excipient:API weight ratio
[11] = pH 2, S630, 1:1 excipient:API weight ratio
[12] = pH 5.8, Captisol, 1:1 excipient:API weight ratio
[13] = pH 5.8, Cavasol, 1:1 excipient:API weight ratio
[14] = pH 5.8, Klucel, 1:1 excipient:API weight ratio
[15] = pH 5.8, Kollidon, 1:1 excipient:API weight ratio
[16] = pH 5.8, S630, 1:1 excipient:API weight ratio
[17] = pH 6.5, Captisol, 1:1 excipient:API weight ratio
[18] = pH 6.5, Cavasol, 1:1 excipient:API weight ratio
[19] = pH 6.5, Klucel, 1:1 excipient:API weight ratio
[20] = pH 6.5, Kollidon, 1:1 excipient:API weight ratio
[21] = pH 6.5, S630, 1:1 excipient:API weight ratio
[22] = CheqSol, 25 °C, standard deviation in parenthesis
[23] = standard deviation in parenthesis
[24] = thermodynamic from solid, CheqSol, 25 °C, standard deviation in parenthesis, read-out: log S0 (intrinsic solubility) (converted)

| SMILES | logP ([1]; octanol/water) | SEXC/SAPI [2, 7] | SEXC/SAPI [2, 8] | SEXC/SAPI [2, 9] | SEXC/SAPI [2, 10] | SEXC/SAPI [2, 11] | SEXC/SAPI [2, 12] | SEXC/SAPI [2, 13] | SEXC/SAPI [2, 14] | SEXC/SAPI [2, 15] | SEXC/SAPI [2, 16] | SEXC/SAPI [2, 17] | SEXC/SAPI [2, 18] | SEXC/SAPI [2, 19] | SEXC/SAPI [2, 20] | pH range in which the drug precipitated from solution [3] | time of supersaturation ([3]; CheqSol) | ts, time of supersaturation [3, 22] | solubility [3, 24] | ionization degree ([4]; pH 6.5, anionic form) | also measured |
| --- | --- | --- | --- | --- | --- | --- | --- | --- | --- | --- | --- | --- | --- | --- | --- | --- | --- | --- | --- | --- | --- |
| NS(=O)(=O)c1cc2c(cc1Cl)N=C(CSCc1ccccc1)NS2(=O)=O [Benzthiazide] | 1.89 | 1.14 | 0.97 | 1.20 | 1.29 | 1.61 | 1.09 | 0.83 | 1.12 | 1.21 | 1.49 | 1.29 | 0.98 | 1.15 | 1.24 | 6.6–8.7 pH | ~ 20 min | 6 (1) min | 11.2 µM (≈ 4.85 µg/mL) | around 40% | SEXC/SAPI [2, 21]: 1.28; Rs, supersaturation ratio [3, 23]: 4 (1); Rs, fold higher ([3]; in the presence of klucel and plasdone S630): 40 fold; Rs, fold higher ([3]; in the presence of kollidon): 100 fold; pKa (first value) [5]: 6.64; pKa (second value) [5]: 9.22 |
| Cc1cc(NC(=O)C2=C(O)c3ccccc3S(=O)(=O)N2C)no1 [Isoxicam] | 2.99 | 1.48 | 1.45 | 1.50 | 1.47 | 1.81 | 1.44 | 1.56 | 1.93 | 1.88 | 1.96 | 1.52 | 1.61 | 1.84 | 1.93 | 3.7–6.7 pH | ~ 20 min | 11 (3) min | 1.91 µM (≈ 0.639 µg/mL) | ~100% | SEXC/SAPI [2, 21]: 1.73; time the initial metastable form is stabilized ([3]; CheqSol, in the presence of klucel): around 16 min; ts, time of supersaturation ([3]; CheqSol, 25 °C, standard deviation in parenthesis, listed as isoxicam): 11 min; Rs, supersaturation ratio [3, 23]: 48 (4); Rs, supersaturation ratio ([3]; standard deviation in parenthesis, listed as isoxicam): 48; solubility ([3]; CheqSol, Figure 2A, read-out: Intrinsic solubility): 1.88 µM (≈ 0.63 µg/mL); ionization degree ([4]; pH 5.8, anionic form): fully ionized; ionization degree ([4]; pH 5.8, anionic form, listed as isoxicam): ~100% |
| CN1C(C(=O)Nc2ccccn2)=C(O)c2ccccc2S1(=O)=O [Piroxicam] | – | – | – | – | – | – | – | – | – | – | – | – | – | – | – | 5.7–6.7 pH | ~ 10 min | 7 (1) min | 21.4 µM (≈ 7.08 µg/mL) | 96% | pKa [6]: 5.34; logP [1]: 1.71; ionization degree ([4]; pH 2, cationic form, positively charged): around 40%; ionization degree ([4]; pH 5.8, anionic form): 75% |
